Experimental data from the NIST ThermoML archive (doi:10.1021/je049814b).

Details: Liquid, Coaxial cylinder method

O [water]
thermal conductivity [W/m/K]
Details	290.6 K	329.7 K	367.1 K	395.1 K	440.7 K	484.2 K	514.2 K	549.8 K	575.4 K
1000 kPa	0.592	0.649	0.679	0.683	–	–	–	–	–
10000 kPa	0.602	0.655	0.684	0.692	0.683	0.66	0.638	0.587	0.54
40000 kPa	0.613	0.665	0.697	0.709	0.703	0.684	0.662	0.628	0.594
